# Counter-ions that a name gives are not always drawn.
# How the values were obtained:
# HCT116 [1] = details: 72 h
# Procedure: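 HCT116 control and MTA1-KO (CRISPR) HCT116 cells were seeded in 384-well plates (800 cells/well), treated 16 h later with 237 metabolism-related anticancer drugs at five doses (10 uM, 2 uM, 400 nM, 80 nM, 16 nM) for 72 h, two replicates; viability by CCK8. Values are % inhibition of viability relative to untreated cells, plus fitted IC50.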
# HCT116 [2] = assay: viability inhibition vs untreated; higher = more cytotoxic; details: 72 h
Structure (SMILES),IC50 (HCT116 [1]; genotype: MTA1-KO),IC50 (HCT116 [1]; genotype: control),"viability inhibition (HCT116 [2]; genotype: MTA1-KO, 16 nM)","viability inhibition (HCT116 [2]; genotype: MTA1-KO, 80 nM)","viability inhibition (HCT116 [2]; genotype: MTA1-KO, 400 nM)","viability inhibition (HCT116 [2]; genotype: MTA1-KO, 2000 nM)","viability inhibition (HCT116 [2]; genotype: MTA1-KO, 10000 nM)","viability inhibition (HCT116 [2]; genotype: control, 16 nM)","viability inhibition (HCT116 [2]; genotype: control, 80 nM)","viability inhibition (HCT116 [2]; genotype: control, 400 nM)","viability inhibition (HCT116 [2]; genotype: control, 2000 nM)","viability inhibition (HCT116 [2]; genotype: control, 10000 nM)"
NC(N)=NC(N)=NCCc1ccccc1 [Phenformin hydrochloride],> 10 µM,> 10 µM,-11.4%,-9.26%,-10.6%,-4.27%,20.1%,12.5%,18.4%,9.46%,8.84%,42.4%
Cc1cc(C2CCCCC2)n(O)c(=O)c1 [Ciclopirox],4.96 µM,1.02 µM,-13.6%,8.1%,-8.33%,25.7%,64.7%,9.52%,6.31%,24%,77%,113%
COCC1(CO)C(=O)C2CCN1CC2 (centres undefined) [PRIMA-1Met],> 10 µM,> 10 µM,7.04%,1.21%,20.1%,-5.66%,5.13%,13.6%,13%,5.28%,1.17%,30.6%
O=C1c2cccc(O)c2C(=O)c2c(O)cccc21 [Antrapurol],> 10 µM,> 10 µM,7.43%,-5.62%,-8.24%,-0.432%,0.85%,1.11%,-7.37%,-11.3%,-10.5%,29.6%
NS(=O)(=O)NCCNc1nonc1C(=Nc1ccc(F)c(Br)c1)NO [Epacadostat],> 10 µM,> 10 µM,17.9%,-8.61%,-7.79%,-6.79%,6.59%,-9.21%,-6.3%,-14.3%,-5.67%,-5.46%
CC(C)(C#N)c1ccc(N2C(=O)OCc3cnc4ccc(-c5cnc6ccccc6c5)cc4c32)cc1,> 10 µM,> 10 µM,-21.1%,-19.6%,-26.7%,-3.23%,30.7%,8.09%,-11.9%,-11.4%,-0.304%,45.6%
CC(C)(Sc1cc(C(C)(C)C)c(O)c(C(C)(C)C)c1)Sc1cc(C(C)(C)C)c(O)c(C(C)(C)C)c1 [Probucol],> 10 µM,> 10 µM,-5.9%,-11%,-1.83%,-5.06%,-0.265%,6.44%,11.6%,-2.62%,16.6%,9.78%
CCn1c(=O)c(-c2ccn[nH]2)cc2c(C)nc(N)nc21 [Voxtalisib],2.36 µM,5.49 µM,5.96%,-3.02%,6.24%,35.5%,72.3%,8.11%,25.4%,16.1%,37.2%,70.3%
COc1cc(/C=C/C(=O)CC(=O)/C=C/c2ccc(O)c(OC)c2)ccc1O [Curcumin],7.8 µM,7.85 µM,-19.2%,-16.2%,-19.6%,-14.2%,61.7%,-1.96%,7.36%,-4.61%,4.83%,60.8%
Cc1c(CN2CCN(c3cccc(C(F)(F)F)c3)CC2)cc(-c2ccccc2)n1NC(=O)c1ccncc1 [Sudoterb free base],> 10 µM,> 10 µM,-13.3%,-15.8%,-16%,-17%,44.1%,-4.96%,1.24%,-11%,-15%,-4.96%
Nc1ccc(S(N)(=O)=O)cc1 [Sulfanilamide],> 10 µM,> 10 µM,-4.56%,-14.5%,-27.6%,-20.9%,-19.4%,-9.12%,-7.95%,-13.7%,-13.7%,-7.82%
Cc1ccc(S(=O)(=O)Cc2nc(-c3ccc(C(=O)NCc4cccnc4)cc3)oc2C)cc1,> 10 µM,> 10 µM,5.08%,-6.5%,-22.3%,-11.9%,2.23%,9.95%,6.71%,18.9%,19%,26.9%
CC(N)=NCc1cccc(CN)c1 [1400W dihydrochloride],> 10 µM,> 10 µM,5.1%,-4.81%,-3.44%,-9.66%,42.6%,5.38%,-11.1%,-13.9%,-9.74%,2.89%
N#CC(C#N)=NNc1ccc(OC(F)(F)F)cc1 [FCCP],8.13 µM,9.04 µM,-7.63%,1.48%,-17.8%,-8.82%,87.2%,-7.79%,-5.69%,-13.2%,-7.17%,67%
C=C1C(=O)O[C@H]2[C@H]1CC/C(C)=C/CC[C@@]1(C)O[C@@H]21 [Parthenolide],2.9 µM,6.58 µM,13.7%,23.4%,17.3%,27.8%,114%,-4.45%,2.37%,-14.2%,-17.8%,100%
COC(=O)c1ccc(O)c(NC(=O)COc2ccc(C34CC5CC(CC(C5)C3)C4)cc2)c1 [LW6],9.47 µM,> 10 µM,1.16%,1.05%,-7.41%,5.31%,49.9%,-13.6%,-18.1%,-10.6%,-9.1%,-7.79%
Cc1c(-c2cnccn2)ssc1=S [Oltipraz],> 10 µM,> 10 µM,-30.8%,-24.9%,-26.7%,-26.6%,-33.9%,-15.3%,-6.71%,-20.1%,-19.1%,-6.16%

# Source: the supplement of paper PMC10477900
